Assay results published in patent US20260055061A1, “HALOPHTHALIMIDE COMPOUNDS AND METHODS OF USE AGAINST TBI, INFLAMMATORY DISORDER, AUTOIMMUNE DISORDER, NEURODEGENERATIVE DISEASE OR VIRAL INFECTION” (The United States of America, as represented by the …, priority 2022, published 2026).
“Also recorded” adds a separate entry of the source.

How the values were obtained:
[1] = test system: LPS-induced nitrite in RAW 264.7 cells; assay: LPS-induced nitrite production in RAW 264.7 cells (Griess reagent / fluorometric kit); type: cell-based, mouse; details: for Nitrite, % Change versus Control (± s.e.m.): 10 uM; for nitrite level, % of vehicle control: percentage of vehicle control value (control = 100%), mean ± S.E.M., n = 3; for nitrite inhibitory activity (comparison in words): tetrafluoro vs corresponding difluoro or stereoisomer
Protocol: Nitrite ion detection in drug treated […] cell culture media: To measure the levels of nitrite ion NO2—) the Griess Reagent System (Promega, Madison, WI, Cat #G2930) was utilized. The protocol followed was that recommended by the manufacturer. In brief a NO2— ion standard curve was prepared in culture media of the same composition to that used for the cell culture study. The concentration range of the standard curve was from 1.5 µM to 100 µM. Equal volumes (50 μL) of standards and unknown samples were added to clear 96 well plates in duplicate. Then 50 μL of sulfanilamide solution was added to each well and the plate was covered and incubated in the dark for 10 min. After the incubation period 50 μL of N-1-napthylethylenediamine dihydrochloride solution was added to each well and the plate was incubated in dark for a further 10 min. After this incubation, the plate was read at 550 nm on a SPECTRAmax PLUS plate reader and the absorbances were used to generate a NO2— standard curve and the NO2— ion levels of the unknown samples are determined using SoftMax Pro V5, Molecular Devices.
Most neurons are highly vulnerable to RNS and ROS. Nitric oxide (NO) is one of RNSs, which is very short lived and cannot be readily measured. However, nitrite is a stable end product of nitric oxide metabolism. Therefore, nitrite acts as a surrogate measure of NO. The Griess Reagent System (Promega Corporation, Madison, WI) can be applied to measure nitrite levels in culture media following the manufacturer's protocol, and this system was used in the present study as it is a more sensitive assay compared to quantifying actions on TNF-α by ELISA assay. […] This challenge induces high level of TNF-α protein accompanied by a robust generation of nitrite.
(§1) Cells were propagated as described by ATCC guidelines.

[2] = test system: TNF-α; assay: LPS-induced TNF-α production in RAW 264.7 cells (ELISA); type: cell-based, mouse; details: for TNF-a, % Change versus Control (± s.e.m.): 10 uM; for TNF-α % Δ: percentage of vehicle control value (control = 100%), mean ± S.E.M., n = 3
Protocol: Enzyme-linked immunosorbent assay for TNF-α protein: Media TNF-α levels were measured by use of the Biolegend ELISA MAX Set Delux ELISA (#430904). The protocol used was that recommended by the manufacturer. In brief, a day prior to performing the assay, a 96 well plate was coated with a capture antibody directed against TNF-α. The following day the assay plate was washed and blocked with the kit blocking agent for 1 h while being mixed on a plate shaker at 200 rpm (all incubations were mixed at 200 rpm unless stated otherwise). A TNF-α protein standard curve was prepared in the assay diluent following the kit instructions and unknown media samples were likewise diluted in the same assay diluent. After blocking, the plate was washed and then both the standards and unknown media samples were added to the plate in duplicate. The standards and unknown samples were incubated for 2 h. After the incubation, the plate was washed and then the biotin labeled detection antibody was added to each well and incubated for a further 1 h. After this incubation, the avidin-HRP conjugate complex was added to each well and incubated for 30 min. The plate was washed and the chromogenic substrate 3,3′,5,5′-tetramethylbenzidine solution was added to each well. At this point the plate was covered and incubated in the dark for 15 min, with no mixing. After 15 min the chromogenic reaction was stopped by the addition of 2 N H2SO4 and the absorbance was read at 450 nm and for background subtractions at 570 nm, on a SPECTRAmax PLUS plate reader. The absorbances were used to generate a TNF-α a protein standard curve and the protein levels in the unknown samples were determined using SoftMax Pro V5, Molecular Devices.
as §1

[3] = test system: RAW 264.7 cells; assay: Cell viability of drug treated RAW 264.7 cells (CellTiter 96 AQueous One, MTS); details: for Viability, % Change versus Control (± s.e.m.): 10 uM; for Cell Viability % Δ: percentage of vehicle control value, mean ± S.E.M., n = 3
Protocol: Assessments of drug anti-TNF-α and nitric oxide generation in RAW 264.7 cells: RAW 264.7 cells were purchased from ATCC Manassas, VA, USA). The cells were grown in DMEM media (Invitrogen, DMEM, high glucose, GlutaMAX Supplement, pyruvate, #10569-010) supplemented with 10% FBS (Invitrogen, Fetal Bovine Serum, qualified, heat inactivated, #16140-071) with penicillin and streptomycin (Invitrogen, Penicillin-Streptomycin (10,000 U/mL), #15140-122) and were maintained at 37 C and 5% CO2. The cells were grown to 75%-85% confluence on 10 cm plates (corning-Fal-con, #353003) following the protocol described by ATTC. to assess for drug effects on LPS-induced markers of inflammation, namely TNF-α protein and nitrite ion levels (NO2, a stable end-product of nitric oxide metabolism) cells were seeded into 24 well (VWR, #10062-896) at a density of 200×10^3 cells per well. On each plate there was one blank well where no cells were added yet culture media in the well was treated similarly to wells with cells (n=1). The blank well media was used for background subtraction for various downstream assays. twenty-four hours after seeding the plate the seeding media was replaced with fresh media. Two hours after this the cells were exposed to a range of concentrations of drug test-compound(s) dissolved in 100% tissue culture grade dimethyl sjloxide (DMSO, SIGMA #D2650). Drug stocks were prepared in a 200 times more concentrated stock in DMSO. The final concentration of DMSO added to the cells was 0.5%. The effects of each concentration of drug were assessed in 4 wells per concentration in the 24 well plate (n=3 #-4). On each plate one set of wells were assigned as drug-vehicle control (i.e. DMSO), one test compound was assessed on one 24 well plate. […] One hour after the drugs were added the cells were challenged with lipopolysaccharide (LPS, SIGMA, serotype 055:B5) at a final concentration of 60 ng/ml. Twenty to twenty-four hours after the cells were challenged with LPS the culture media was collected and utilized for the measurement of markers of inflammation.
Cellular viability assessment of drug treated RAW 264.7 cells: RAW 264.7 cell viability was determined by use of the CellTiter 96 AQueous One Solution Cell Proliferation Assay (Promega, Madison, WI). Changes in cellular health status were determined by use of indirect measures related to the formation of a colored tetrazolium dye product that can be measured spectrophotometrically at 490 nm. An increase in absorbance at 490 nm is indicative of an increase in numbers of healthy cells; similarly a reduction in absorbance is indicative of a reduction of healthy cells. After the culture media was harvested for use in TNF-α and NO2— ion assays, the media was replaced with 0.5 mL of fresh media plus 100 μL of the cell viability reaction mixture. After a 20-30 min incubation at 37° C. with 5% CO2 the absorbance at 490 nm was obtained using an infinite M200 PRO plate reader (TECAN, USA).
Statistical analyses for RAW-derived assays: Data are expressed as a percentage change from the DMSO-vehicle control measurements. Measurements are expressed as mean±standard errors, where the n number represents the number of wells in a 24 well plate. Due to the presence of one blank control well on each plate, for some drug concentrations the n number is 3 # and not 4. Statistical comparisons were undertaken by use of a One-Way ANOVA with appropriate Bonferroni corrections for multiple comparisons, as required (GraphPad InStat Version 3.05). P values of <0.05 are considered to be of statistical significance.
RAW 264.7 cell culture: RAW 264.7 mouse cells were purchased from ATCC (Manassas, VA, USA) and grown in DMEM media supplemented with 10% FCS, penicillin 100 U/ml and streptomycin 100 μg/ml (ThermoFisher Scientific, Asheville, NC, USA). The cells were maintained at 37° C. and 5% CO2.

[4] = LPS-activated RAW 264.7 cells (Table 9)
[5] = 1 μM, LPS-challenged RAW 264.7 cells
[6] = 10 μM, LPS-challenged RAW 264.7 cells
[7] = 30 μM, LPS-challenged RAW 264.7 cells

Nc1cccc2c1C(=O)N(C1CCC(=O)NC1=O)C2=O (centres unmarked)
Nitrite, % Change versus Control (± s.e.m.) [1, 4]: 91 ± 1.6 (N.S.) %
TNF-a, % Change versus Control (± s.e.m.) [2, 4]: 95 ± 4.8 (N.S.) %
Viability, % Change versus Control (± s.e.m.) [3, 4]: 95 ± 1.2 (N.S.) %

2-(2,6-dioxopiperidin-3-yl)-4-fluoro-7-nitroisoindoline-1,3-dione [Compound 23]
Nitrite, % Change versus Control (± s.e.m.) ([1]; LPS-activated RAW 264.7 cells): 56.8 ± 2.2%
TNF-a, % Change versus Control (± s.e.m.) ([2]; LPS-activated RAW 264.7 cells): 86.0 ± 4.4%
Viability, % Change versus Control (± s.e.m.) ([3]; LPS-activated RAW 264.7 cells): 104.9 ± 2.1%

C[C@H]1[C@H](N2C(=O)c3c(F)c(F)c(F)c(F)c3C2=O)C[C@@H]2C[C@H]1C2(C)C [Compound 11, 4,5,6,7-Tetrafluoro-2-((1R,2R,3R,5S)-2,6,6-trimethylbicyclo[3.1.1]heptan-3-yl) isoindoline-1,3-dione]
nitrite level, % of vehicle control [1, 5]: 48 ± 2%
nitrite inhibitory activity (comparison in words) ([1]; 1 μM): more potent nitrite inhibitory activity
TNF-α % Δ [2, 5]: 76 ± 2%
Cell Viability % Δ ([3]; 1 μM, RAW 264.7 cells): 90 ± 4%

C[C@@H]1[C@@H](N2C(=O)c3c(F)c(F)c(F)c(F)c3C2=O)C[C@H]2C[C@@H]1C2(C)C [Compound 12, 4,5,6,7-Tetrafluoro-2-((1S,2S,3S,5R)-2,6,6-trimethylbicyclo[3.1.1]heptan-3-yl) isoindoline-1,3-d ione]
nitrite level, % of vehicle control [1, 5]: 24 ± 3%
nitrite inhibitory activity (comparison in words) ([1]; 1 μM): more potent nitrite inhibitory activity
TNF-α % Δ [2, 5]: 56 ± 5%
Cell Viability % Δ ([3]; 1 μM, RAW 264.7 cells): 63 ± 4%

CC1(C)[C@H]2CC[C@@H](CN3C(=O)c4c(F)c(F)c(F)c(F)c4C3=O)[C@@H]1C2 [Compound 13, 2-(((1S,2R,5S)-6,6-dimethylbicyclo[3.1.1]heptan-2-yl)methyl)-4,5,6,7-tetrafluoroisoindoline-1,3-dione]
nitrite level, % of vehicle control [1, 5]: 31 ± 3%
nitrite inhibitory activity (comparison in words) ([1]; 1 μM): more potent nitrite inhibitory activity
TNF-α % Δ [2, 5]: 62 ± 3%
Cell Viability % Δ ([3]; 1 μM, RAW 264.7 cells): 78 ± 3%

O=C1c2c(F)c(F)c(F)c(F)c2C(=O)N1C1CC2CCC1C2 (stereo not drawn) [Compound 15, 2-Exo-(bicyclo[2.2.1]heptan-2-yl)-4,5,6,7-tetrafluoroisoindoline-1,3-dione]
nitrite levels [1, 5]: 25-36%
nitrite level, % of vehicle control [1, 5]: 25 ± 2%
nitrite inhibitory activity (comparison in words) ([1]; 1 μM): more potent nitrite inhibitory activity; also recorded: slightly more potent than diastereomer 16
TNF-α level [2, 5]: 55-74%
TNF-α % Δ [2, 5]: 71 ± 2%

C[C@H]1[C@H](N2C(=O)c3c(F)ccc(F)c3C2=O)C[C@@H]2C[C@H]1C2(C)C [Compound 17, 4,7-Difluoro-2-((1R,2R,3R,5S)-2,6,6-trimethylbicyclo[3.1.1]heptan-3-yl) isoindoline-1,3-dione]
nitrite level, % of vehicle control [1, 5]: 90 ± 5%
nitrite level, % of vehicle control [1, 6]: 54 ± 3%
TNF-α % Δ [2, 5]: 95 ± 3%
TNF-α % Δ [2, 6]: 77 ± 3%
Cell Viability % Δ ([3]; 1 μM, RAW 264.7 cells): 100 ± 4%
Cell Viability % Δ ([3]; 10 μM, RAW 264.7 cells): 81 ± 5%

CC1(C)[C@H]2CC[C@@H](CN3C(=O)c4c(F)ccc(F)c4C3=O)[C@@H]1C2 [Compound 19, 2-(((1S,2R,5S)-6,6-dimethylbicyclo[3.1.1]heptan-2-yl)methyl)-4,7-difluoroisoindoline-1,3-dione]
nitrite level, % of vehicle control [1, 5]: 79 ± 2%
nitrite level, % of vehicle control [1, 6]: 63 ± 3%
nitrite level, % of vehicle control [1, 7]: 22 ± 1%
TNF-α % Δ [2, 5]: 102 ± 2%
TNF-α % Δ [2, 6]: 82 ± 2%
Cell Viability % Δ ([3]; 1 μM, RAW 264.7 cells): 98 ± 2%
Cell Viability % Δ ([3]; 10 μM, RAW 264.7 cells): 93 ± 4%
Cell Viability % Δ ([3]; 30 μM, RAW 264.7 cells): 67 ± 3%

CC1(C)[C@@H]2CC[C@@]1(C)[C@@H](N1C(=O)c3c(F)ccc(F)c3C1=O)C2 [Compound 20, 4,7-Difluoro-2-((1R,2S,4R)-1,7,7-trimethylbicyclo[2.2.1]heptan-2-yl) isoindoline-1,3-dione]
nitrite level, % of vehicle control [1, 5]: 90 ± 2%
nitrite level, % of vehicle control [1, 6]: 78 ± 3%
nitrite level, % of vehicle control [1, 7]: 39 ± 5%
inhibition at 30 µM ([1]; Mus musculus, RAW264.7, 30 μM, LPS-challenged RAW 264.7 cells, read-out: nitrite inhibitory activity): 39%
TNF-α % Δ [2, 5]: 100 ± 2%
TNF-α % Δ [2, 6]: 98 ± 3%
anti-TNF-α activity [2, 7]: 76%
TNF-α % Δ [2, 7]: 76 ± 4%
Cell Viability % Δ ([3]; 1 μM, RAW 264.7 cells): 101 ± 3%
Cell Viability % Δ ([3]; 10 μM, RAW 264.7 cells): 98 ± 4%
cell viability ([3]; 30 μM, RAW 264.7 cells): 96%
Cell Viability % Δ ([3]; 30 μM, RAW 264.7 cells): 96 ± 6%
cytotoxicity (in words) ([3]; RAW 264.7 cells, 1 to 30 μM): the smallest
